The source made the active and inactive calls.
Columns and labels:
[1] = molecular target: Beta-galactosidase (Escherichia coli, UniProt Q8VNN2); experiment: PubChem AID 485352; assay type: functional
[2] = molecular target: Type-1 angiotensin II receptor (Homo sapiens, UniProt P30556); experiment: antagonism of angiotensin II type 1 receptor – cell-based, uHTS hits, selectivity assay for APJ receptor antagonist project, dose response (AID 463214); assay type: functional;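 note: antagonist potency against angiotensin II stimulated AT1 response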
[3] = molecular target: T1, RNA-binding protein pos-1 (Caenorhabditis elegans, UniProt G5EF15); experiment: disruptors of C. elegans POS-1 RNA interaction – biochemical, fluorescence polarization, dose response (AID 1964);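 note: purified POS-1 fused to maltose binding protein made in E. coli; potency of compounds blocking POS-1 binding to fluorescent RNA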
T1 sequence (G5EF15 whole entry): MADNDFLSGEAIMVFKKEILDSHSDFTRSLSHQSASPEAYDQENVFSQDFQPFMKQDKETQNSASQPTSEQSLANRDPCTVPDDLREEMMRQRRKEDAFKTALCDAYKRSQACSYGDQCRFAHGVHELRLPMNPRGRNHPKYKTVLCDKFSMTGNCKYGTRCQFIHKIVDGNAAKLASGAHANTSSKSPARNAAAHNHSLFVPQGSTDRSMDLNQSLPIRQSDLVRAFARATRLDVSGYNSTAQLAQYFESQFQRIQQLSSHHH

[4] = molecular target: Keap1/Nrf2 (Homo sapiens, UniProt Q14145); experiment: disruptors of Keap1 binding to Nrf2 peptide – biochemical, fluorescence polarization, cherry-picked samples, dose response (AID 588683)
[5] = molecular target: T2, Zinc finger protein mex-5 (Caenorhabditis elegans, UniProt Q9XUB2); experiment: potency of MEX-5 RNA-binding blockers – biochemical, C. elegans, fluorescence polarization, dose response (AID 1960)
T2 sequence (Q9XUB2 whole entry): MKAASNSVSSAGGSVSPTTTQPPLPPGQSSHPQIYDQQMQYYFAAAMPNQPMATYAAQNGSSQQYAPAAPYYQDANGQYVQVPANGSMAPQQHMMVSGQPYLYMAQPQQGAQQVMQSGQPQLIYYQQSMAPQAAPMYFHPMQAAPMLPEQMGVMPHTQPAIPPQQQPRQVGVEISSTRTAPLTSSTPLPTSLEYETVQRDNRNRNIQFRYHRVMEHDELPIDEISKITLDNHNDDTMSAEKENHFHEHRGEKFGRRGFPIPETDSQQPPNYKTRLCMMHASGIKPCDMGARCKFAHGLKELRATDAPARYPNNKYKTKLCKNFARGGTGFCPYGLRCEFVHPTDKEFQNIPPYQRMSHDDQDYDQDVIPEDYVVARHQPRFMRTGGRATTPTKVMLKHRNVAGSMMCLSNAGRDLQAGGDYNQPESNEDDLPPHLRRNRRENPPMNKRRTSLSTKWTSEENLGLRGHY

[6] = molecular target: T3, ORF 73 (Human herpesvirus 8, UniProt O40947); experiment: KSHV LANA DNA-binding disruption – biochemical, fluorescence polarization, cherry-picked samples, dose response (AID 504725); design: species or system Human gammaherpesvirus 8;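 note: fluorescence polarization of a labeled DNA duplex reporting LANA DNA binding; potency is for inhibitors that block LANA binding to the DNA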
T3 sequence (O40947 whole entry): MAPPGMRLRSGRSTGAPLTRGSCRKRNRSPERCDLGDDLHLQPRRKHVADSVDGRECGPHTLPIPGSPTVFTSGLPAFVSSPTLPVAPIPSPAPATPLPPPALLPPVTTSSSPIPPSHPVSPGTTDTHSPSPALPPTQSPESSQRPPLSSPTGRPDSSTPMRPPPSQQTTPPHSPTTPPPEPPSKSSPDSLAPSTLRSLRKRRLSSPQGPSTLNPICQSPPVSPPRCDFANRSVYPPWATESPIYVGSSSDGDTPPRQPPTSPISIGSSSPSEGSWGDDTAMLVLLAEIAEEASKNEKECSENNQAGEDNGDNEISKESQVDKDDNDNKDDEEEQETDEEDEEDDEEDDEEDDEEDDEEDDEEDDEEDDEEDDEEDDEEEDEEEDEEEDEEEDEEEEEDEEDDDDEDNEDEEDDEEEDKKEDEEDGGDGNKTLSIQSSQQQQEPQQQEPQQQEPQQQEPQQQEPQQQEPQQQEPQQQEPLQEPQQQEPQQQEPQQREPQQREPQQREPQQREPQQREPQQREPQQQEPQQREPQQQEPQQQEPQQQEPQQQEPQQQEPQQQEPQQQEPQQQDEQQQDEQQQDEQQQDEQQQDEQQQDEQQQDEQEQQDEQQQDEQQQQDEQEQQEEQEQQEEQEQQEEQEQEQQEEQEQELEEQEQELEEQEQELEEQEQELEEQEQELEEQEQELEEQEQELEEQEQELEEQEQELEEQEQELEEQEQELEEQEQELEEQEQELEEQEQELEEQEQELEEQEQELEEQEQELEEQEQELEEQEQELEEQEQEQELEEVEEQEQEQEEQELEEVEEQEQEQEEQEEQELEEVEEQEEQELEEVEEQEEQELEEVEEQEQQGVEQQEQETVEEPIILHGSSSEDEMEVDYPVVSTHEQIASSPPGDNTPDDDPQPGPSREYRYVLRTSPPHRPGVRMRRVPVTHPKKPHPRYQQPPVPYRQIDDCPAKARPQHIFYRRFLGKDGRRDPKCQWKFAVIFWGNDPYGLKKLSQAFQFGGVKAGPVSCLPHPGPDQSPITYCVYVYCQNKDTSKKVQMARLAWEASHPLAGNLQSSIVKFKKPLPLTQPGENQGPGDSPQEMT

[7] = molecular target: T4, Histone-lysine N-methyltransferase NSD2 (Homo sapiens, UniProt O96028); assay type: biochemical
T4 sequence (O96028 whole entry): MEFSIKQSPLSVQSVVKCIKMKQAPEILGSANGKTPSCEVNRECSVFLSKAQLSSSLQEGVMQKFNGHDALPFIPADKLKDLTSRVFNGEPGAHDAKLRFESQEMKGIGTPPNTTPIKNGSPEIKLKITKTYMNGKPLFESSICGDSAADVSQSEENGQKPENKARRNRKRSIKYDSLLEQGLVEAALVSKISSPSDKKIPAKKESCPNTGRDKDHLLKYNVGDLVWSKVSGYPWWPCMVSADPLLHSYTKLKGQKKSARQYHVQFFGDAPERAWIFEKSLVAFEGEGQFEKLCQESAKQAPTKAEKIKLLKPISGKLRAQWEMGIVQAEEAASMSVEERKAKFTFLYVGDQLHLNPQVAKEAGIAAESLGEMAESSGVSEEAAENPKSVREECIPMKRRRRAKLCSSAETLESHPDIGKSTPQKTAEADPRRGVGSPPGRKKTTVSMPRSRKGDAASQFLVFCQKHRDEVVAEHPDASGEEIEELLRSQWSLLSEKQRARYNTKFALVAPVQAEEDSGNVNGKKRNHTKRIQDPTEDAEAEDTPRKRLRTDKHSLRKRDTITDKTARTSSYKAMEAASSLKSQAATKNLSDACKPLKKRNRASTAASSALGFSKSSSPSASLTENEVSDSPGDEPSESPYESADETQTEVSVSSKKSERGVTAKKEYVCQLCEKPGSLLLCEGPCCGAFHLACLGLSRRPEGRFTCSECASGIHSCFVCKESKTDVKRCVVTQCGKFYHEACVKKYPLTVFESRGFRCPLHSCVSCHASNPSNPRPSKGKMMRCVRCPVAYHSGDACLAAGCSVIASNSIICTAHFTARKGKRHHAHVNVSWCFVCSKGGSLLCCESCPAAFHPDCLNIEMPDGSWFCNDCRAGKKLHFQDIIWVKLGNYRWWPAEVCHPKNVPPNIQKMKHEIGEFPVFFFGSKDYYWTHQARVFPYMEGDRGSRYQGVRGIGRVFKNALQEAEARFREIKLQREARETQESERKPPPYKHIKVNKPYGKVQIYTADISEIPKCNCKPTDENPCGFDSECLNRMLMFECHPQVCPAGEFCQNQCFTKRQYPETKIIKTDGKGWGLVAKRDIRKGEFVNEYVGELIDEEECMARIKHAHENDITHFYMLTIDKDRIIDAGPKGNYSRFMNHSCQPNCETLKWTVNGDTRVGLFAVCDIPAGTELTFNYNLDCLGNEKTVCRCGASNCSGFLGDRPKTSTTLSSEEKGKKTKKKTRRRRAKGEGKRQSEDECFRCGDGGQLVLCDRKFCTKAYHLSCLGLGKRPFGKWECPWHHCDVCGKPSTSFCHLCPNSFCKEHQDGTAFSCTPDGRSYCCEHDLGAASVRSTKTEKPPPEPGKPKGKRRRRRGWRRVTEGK

[8] = test system: HeLa; experiment: viability loss in HeLa cells – cell-based, 24 h, cherry-picked samples, cytotoxicity control, dose response (AID 504726); assay type: functional; conditions: Homo sapiens;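 note: potency for cytotoxicity as loss of luminescence signal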
[9] = test system: Salmon testes DNA; experiment: acridine orange-DNA binding displacement – biochemical, fluorescence polarization, cherry-picked samples, set 2, artefact control for KSHV LANA DNA-binding inhibitor project, dose response (AID 504727); design: species or system Salmonidae
[10] = molecular target: Large T antigen (Simian virus 40, UniProt P03070); assay type: functional, Betapolyomavirus macacae;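 note: Confirmatory-stage PubChem screen for compounds that inhibit SV40 T antigen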
[11] = molecular target: Dual specificity protein kinase CLK1 (Homo sapiens, UniProt P49759); experiment: inhibition of human CLK1 activity – biochemical, cherry-picked samples, selectivity assay for Dyrk1A inhibitor project, dose response (AID 588811)
[12] = test system: Escherichia coli; experiment: microbe, parasite or virus in culture
[13] = fluconazole-exposed Candida albicans growth modulators – fluorescence, retest, confirmation (AID 2467); assay type: functional, cell-based
[14] = molecular target: T5, Serine/threonine-protein phosphatase (Candida dubliniensis (strain CD36 / CBS 7987 / NCPF 3949 / NRRLY-17841) (Yeast), UniProt B9W6M3); experiment: blockers of CaCl2-induced CDRE-lacZ signaling – S. cerevisiae, luminescence, secondary, dose response (AID 2388); assay type: functional, cell-based;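 note: yeast reporter cells carrying a calcineurin-responsive lacZ construct stimulated with calcium chloride; luminescent beta-galactosidase reporter signal in whole cells rather than isolated phosphatase activity; potency for inhibition where a drop in reporter signal means calcineurin blockade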
T5 sequence (B9W6M3 whole entry): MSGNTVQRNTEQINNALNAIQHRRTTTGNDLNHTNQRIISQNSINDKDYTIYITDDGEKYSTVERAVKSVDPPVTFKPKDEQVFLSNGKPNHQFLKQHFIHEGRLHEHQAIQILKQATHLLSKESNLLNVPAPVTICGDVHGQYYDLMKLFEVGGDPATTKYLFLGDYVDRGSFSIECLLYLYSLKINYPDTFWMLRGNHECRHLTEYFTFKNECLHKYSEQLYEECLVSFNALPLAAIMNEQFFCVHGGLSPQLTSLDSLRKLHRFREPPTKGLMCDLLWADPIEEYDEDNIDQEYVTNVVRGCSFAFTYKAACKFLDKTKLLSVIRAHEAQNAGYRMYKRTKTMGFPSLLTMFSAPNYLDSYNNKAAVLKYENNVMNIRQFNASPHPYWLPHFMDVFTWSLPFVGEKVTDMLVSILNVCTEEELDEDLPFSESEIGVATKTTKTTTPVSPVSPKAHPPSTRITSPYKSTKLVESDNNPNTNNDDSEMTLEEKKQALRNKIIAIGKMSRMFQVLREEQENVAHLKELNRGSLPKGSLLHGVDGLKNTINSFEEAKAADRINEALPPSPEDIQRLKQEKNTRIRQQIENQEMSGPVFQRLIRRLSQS

[15] = molecular target: ATP-dependent molecular chaperone HSP82 (Candida albicans (strain WO-1) (Yeast), UniProt C4YTQ8); experiment: steroid-induced GRE reporter decrease in yeast – S. cerevisiae, luminescence, Hsp90 inhibitor project, dose response (AID 2400); assay type: functional, cell-based;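 note: beta-galactosidase luminescence from glucocorticoid response element reporter as proxy for Hsp90 function; inhibitor potency where signal loss means Hsp90 inhibition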
[16] = cells; assay type: functional, cell-based
[17] = test system: INS1; experiment: INS-1E survival protection against cytokine death – cell-based, luminescence, retest, dose response (AID 449756); assay type: functional; conditions: Rattus norvegicus;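 note: cell death triggered by IL-1 beta plus TNF-alpha plus IFN-gamma mixture; protective hits raise ATP signal compared with cytokine alone wells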
[18] = NIH-3T3 fibroblast cytotoxicity, dose response, cytotoxicity control, cell-based, fluorescence, Alamar Blue, secondary assay (AID 2327); assay type: functional;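 note: NIH-3T3 mouse fibroblasts cultured with fluconazole at 8 µg/mL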
[19] = molecular target: T6, Microphthalmia-associated transcription factor (Homo sapiens, UniProt O75030); experiment: reducers of TRPM1 reporter luminescence, concentration series – cell-based, SK-MEL-5, cherry-picked, set 3, MITF inhibitor project, dose response (AID 493073); assay type: functional;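 note: SK-MEL-5 melanoma cells with luciferase driven by the MITF target TRPM1 promoter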
T6 sequence (O75030 whole entry): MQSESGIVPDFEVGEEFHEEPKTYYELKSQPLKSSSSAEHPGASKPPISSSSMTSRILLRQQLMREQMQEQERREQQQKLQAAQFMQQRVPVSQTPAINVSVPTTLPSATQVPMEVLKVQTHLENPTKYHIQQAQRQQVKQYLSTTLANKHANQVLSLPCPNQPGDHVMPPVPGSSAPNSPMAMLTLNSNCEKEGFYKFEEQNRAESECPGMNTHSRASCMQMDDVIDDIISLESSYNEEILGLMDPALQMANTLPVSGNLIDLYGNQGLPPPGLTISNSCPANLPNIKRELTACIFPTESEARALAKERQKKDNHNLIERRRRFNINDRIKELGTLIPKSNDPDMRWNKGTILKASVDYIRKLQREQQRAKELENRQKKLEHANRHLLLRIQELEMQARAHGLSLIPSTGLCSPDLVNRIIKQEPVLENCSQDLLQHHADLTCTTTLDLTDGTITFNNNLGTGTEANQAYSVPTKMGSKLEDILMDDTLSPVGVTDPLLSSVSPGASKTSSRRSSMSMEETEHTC

[20] = cells; assay type: functional, cell-based; remark: listed apart in the source
[21] = test system: A-375; experiment: MITF: Counter assay: A375 proliferation Measured in Cell-Based System Using Plate Reader - 2084-03_Inhibitor_Dose_DryPowder_Activity. [Related pubchem assays (depositor defined):AID488944]; assay type: functional; conditions: Homo sapiens

Chain of Keap1/Nrf2 (Q16236 whole entry): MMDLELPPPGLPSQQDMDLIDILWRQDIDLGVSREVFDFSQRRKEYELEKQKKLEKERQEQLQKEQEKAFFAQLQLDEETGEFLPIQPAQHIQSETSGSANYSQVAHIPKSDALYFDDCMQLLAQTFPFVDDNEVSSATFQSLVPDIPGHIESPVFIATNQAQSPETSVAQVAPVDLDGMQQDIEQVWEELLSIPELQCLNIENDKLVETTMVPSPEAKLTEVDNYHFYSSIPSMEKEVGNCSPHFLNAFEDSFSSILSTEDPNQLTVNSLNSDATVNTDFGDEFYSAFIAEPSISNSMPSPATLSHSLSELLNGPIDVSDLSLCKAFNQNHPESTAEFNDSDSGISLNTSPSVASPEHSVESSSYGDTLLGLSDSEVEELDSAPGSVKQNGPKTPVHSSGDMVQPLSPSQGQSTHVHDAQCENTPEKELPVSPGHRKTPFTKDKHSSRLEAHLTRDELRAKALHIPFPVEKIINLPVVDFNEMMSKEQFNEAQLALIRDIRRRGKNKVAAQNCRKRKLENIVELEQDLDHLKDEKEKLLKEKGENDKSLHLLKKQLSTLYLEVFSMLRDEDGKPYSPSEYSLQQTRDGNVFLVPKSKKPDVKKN
Chain of Keap1/Nrf2 (Q14145 whole entry): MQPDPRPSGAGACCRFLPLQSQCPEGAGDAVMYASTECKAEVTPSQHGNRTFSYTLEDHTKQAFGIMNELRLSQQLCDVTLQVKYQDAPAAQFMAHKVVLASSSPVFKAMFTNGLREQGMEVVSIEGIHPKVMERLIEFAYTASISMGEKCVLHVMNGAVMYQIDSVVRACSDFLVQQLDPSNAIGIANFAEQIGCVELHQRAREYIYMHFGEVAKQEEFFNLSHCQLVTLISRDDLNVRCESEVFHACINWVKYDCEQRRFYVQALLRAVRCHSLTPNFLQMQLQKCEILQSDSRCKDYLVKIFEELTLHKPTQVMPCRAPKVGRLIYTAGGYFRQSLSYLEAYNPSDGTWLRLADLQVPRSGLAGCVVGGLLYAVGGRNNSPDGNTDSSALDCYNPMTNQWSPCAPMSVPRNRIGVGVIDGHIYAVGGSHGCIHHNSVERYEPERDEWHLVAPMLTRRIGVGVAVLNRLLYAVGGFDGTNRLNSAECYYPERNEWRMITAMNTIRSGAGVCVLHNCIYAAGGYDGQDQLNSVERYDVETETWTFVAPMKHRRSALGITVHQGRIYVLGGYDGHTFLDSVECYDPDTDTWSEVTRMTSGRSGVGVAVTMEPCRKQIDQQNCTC
Chain of Dual specificity protein kinase CLK1 (P49759 whole entry): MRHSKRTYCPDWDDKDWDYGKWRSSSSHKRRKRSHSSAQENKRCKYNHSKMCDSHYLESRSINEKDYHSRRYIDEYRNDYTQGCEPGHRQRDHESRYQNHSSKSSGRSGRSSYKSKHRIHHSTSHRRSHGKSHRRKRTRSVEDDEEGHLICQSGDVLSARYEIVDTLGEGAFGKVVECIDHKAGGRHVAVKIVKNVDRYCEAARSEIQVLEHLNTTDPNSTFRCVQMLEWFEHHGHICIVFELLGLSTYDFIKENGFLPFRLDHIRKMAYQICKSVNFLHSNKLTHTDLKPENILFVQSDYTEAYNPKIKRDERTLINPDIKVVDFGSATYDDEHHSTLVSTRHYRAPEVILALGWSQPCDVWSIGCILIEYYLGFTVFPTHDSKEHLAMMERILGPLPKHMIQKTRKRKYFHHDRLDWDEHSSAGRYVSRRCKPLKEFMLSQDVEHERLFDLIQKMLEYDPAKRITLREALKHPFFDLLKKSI
Chain of ATP-dependent molecular chaperone HSP82 (C4YTQ8 whole entry): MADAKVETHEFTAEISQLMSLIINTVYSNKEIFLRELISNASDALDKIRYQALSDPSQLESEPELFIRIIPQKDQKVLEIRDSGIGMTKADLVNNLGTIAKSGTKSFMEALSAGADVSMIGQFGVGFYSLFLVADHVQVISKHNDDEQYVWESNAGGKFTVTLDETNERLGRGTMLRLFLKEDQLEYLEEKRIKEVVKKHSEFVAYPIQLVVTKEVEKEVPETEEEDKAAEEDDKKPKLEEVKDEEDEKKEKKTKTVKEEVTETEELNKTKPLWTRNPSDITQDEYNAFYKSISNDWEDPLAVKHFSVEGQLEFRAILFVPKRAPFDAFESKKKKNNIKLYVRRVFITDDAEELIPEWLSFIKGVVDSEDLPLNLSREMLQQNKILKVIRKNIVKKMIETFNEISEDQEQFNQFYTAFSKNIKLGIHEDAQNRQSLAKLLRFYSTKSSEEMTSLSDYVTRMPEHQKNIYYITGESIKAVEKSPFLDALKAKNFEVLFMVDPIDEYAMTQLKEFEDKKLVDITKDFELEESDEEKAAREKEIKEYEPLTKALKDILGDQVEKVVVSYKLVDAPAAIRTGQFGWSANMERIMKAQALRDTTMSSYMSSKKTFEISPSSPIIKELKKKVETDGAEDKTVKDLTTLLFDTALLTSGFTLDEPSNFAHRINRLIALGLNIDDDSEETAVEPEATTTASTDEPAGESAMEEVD
Chain of Beta-galactosidase (Q8VNN2 whole entry): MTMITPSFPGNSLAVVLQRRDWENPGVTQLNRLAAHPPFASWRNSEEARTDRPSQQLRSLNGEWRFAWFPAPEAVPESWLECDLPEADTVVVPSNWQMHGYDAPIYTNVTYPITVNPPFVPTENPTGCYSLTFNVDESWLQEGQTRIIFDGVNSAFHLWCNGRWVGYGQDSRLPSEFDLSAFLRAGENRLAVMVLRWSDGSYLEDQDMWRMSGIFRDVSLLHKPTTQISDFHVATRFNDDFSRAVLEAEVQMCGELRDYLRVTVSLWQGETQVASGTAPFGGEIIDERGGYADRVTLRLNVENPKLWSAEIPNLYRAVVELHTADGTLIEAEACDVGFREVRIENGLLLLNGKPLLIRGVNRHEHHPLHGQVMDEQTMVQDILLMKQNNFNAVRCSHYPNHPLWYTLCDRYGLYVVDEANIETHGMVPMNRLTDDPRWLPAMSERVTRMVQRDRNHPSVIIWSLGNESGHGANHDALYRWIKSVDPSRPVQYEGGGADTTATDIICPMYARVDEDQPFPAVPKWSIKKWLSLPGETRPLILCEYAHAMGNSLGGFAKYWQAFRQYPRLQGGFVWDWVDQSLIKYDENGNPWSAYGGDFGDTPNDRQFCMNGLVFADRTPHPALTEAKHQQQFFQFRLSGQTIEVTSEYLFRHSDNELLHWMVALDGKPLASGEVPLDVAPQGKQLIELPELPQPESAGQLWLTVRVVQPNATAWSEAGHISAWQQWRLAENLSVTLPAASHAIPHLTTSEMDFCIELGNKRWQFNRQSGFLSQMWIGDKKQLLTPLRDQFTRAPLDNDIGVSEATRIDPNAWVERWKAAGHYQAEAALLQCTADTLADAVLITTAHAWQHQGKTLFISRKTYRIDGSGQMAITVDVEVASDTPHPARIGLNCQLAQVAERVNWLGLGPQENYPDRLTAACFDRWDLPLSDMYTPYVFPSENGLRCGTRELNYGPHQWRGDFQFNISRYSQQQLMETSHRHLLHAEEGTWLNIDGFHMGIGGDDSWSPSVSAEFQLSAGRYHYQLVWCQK
Chain of Large T antigen (P03070 whole entry): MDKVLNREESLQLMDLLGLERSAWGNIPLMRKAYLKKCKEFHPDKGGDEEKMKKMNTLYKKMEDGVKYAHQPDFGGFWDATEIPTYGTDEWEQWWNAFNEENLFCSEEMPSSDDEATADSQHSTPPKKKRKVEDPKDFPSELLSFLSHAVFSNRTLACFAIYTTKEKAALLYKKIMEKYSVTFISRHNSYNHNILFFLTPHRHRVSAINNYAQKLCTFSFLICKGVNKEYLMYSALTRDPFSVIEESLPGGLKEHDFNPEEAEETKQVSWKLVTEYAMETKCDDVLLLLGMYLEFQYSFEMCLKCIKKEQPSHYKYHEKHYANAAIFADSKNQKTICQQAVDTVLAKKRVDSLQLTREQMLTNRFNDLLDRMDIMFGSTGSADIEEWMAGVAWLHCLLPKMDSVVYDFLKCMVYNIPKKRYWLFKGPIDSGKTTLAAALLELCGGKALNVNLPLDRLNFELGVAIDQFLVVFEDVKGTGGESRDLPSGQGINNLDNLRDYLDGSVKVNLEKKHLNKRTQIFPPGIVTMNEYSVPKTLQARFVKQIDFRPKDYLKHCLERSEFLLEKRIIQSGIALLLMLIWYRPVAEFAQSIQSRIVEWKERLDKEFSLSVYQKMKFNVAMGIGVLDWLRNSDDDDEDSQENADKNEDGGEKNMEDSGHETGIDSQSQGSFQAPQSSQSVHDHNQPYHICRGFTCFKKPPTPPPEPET
Chain of Type-1 angiotensin II receptor (P30556 whole entry, the tested form may be a part): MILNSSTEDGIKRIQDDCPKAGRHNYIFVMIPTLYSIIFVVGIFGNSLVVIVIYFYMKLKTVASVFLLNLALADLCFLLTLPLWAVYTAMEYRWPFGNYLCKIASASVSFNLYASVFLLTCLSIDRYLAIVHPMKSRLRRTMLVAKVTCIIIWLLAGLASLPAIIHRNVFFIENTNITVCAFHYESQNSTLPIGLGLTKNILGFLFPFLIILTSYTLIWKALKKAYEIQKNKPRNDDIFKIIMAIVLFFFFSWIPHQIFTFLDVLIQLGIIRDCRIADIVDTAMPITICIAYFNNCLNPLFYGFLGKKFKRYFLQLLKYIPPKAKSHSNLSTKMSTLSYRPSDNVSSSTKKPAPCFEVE

In the case of O=C(OCC(=O)c1ccc(Cl)cc1Cl)c1ccc2c(c1)C(=O)N(c1cccc3ncccc13)C2=O, the EC50 [1] is reported as > 40 µM (inactive) and the IC50 [2] is reported as 39.4 µM (not active).

For O=C(O)CCNc1ccc(NCCC(=O)O)c2c1C(=O)c1ccccc1C2=O, the EC50 [3] was 12.9 µM (active), the AC50 [4] was > 52 µM (inactive) and the EC50 [5] was 15.3 µM (inconclusive). The AC50 [6] was 22.8 µM (active), the AC50 [7] was 11.2 µM (active) and the AC50 [8] was 35 µM (active). The AC50 [9] was 37.8 µM (active) and the IC50 [10] was 26.7 µM (active).

For FC(F)(F)c1cccc(Nc2nccc(-c3ccc4c(c3)OCO4)n2)c1, the AC50 [11] was 15.7 µM (active).

For CCc1nc2nc(C)c(NS(=O)(=O)c3ccc(Cl)s3)c(O)n2n1, the AC50 [12] was 65.8 µM (active).

With CCN(CC)c1ccc(/C=N/NC(=O)c2cccc(S(=O)(=O)N3CCOCC3)c2)c(O)c1 the EC50 [13] was 0.769 µM (active), the EC50 [14] was > 180 µM (inactive) and the EC50 [15] was > 160 µM (inactive). For the same compound, the EC50 [16] was 2.85 µM (active), the AC50 [17] was 0.358 µM (active) and the EC50 [18] was 12.5 µM (inconclusive). The AC50 [19] was 1.52 µM (active), the EC50 [20] was 28.5 µM (active) and the AC50 [21] was 47.2 µM (active).

From ChEMBL document CHEMBL1201862, “PubChem BioAssay data set” (2004)
